Reference: ChEMBL document CHEMBL1201862, “PubChem BioAssay data set” (2004)
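Tested at 5 concentrations; 48 h exposure; 96-well plates; endpoints linearly interpolated, else capped at highest concentration. At the GI50, growth is halved.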 Activity calls are given as the source filed them. Rule as the data show it: active = GI50 up to about 1.1 µM and inactive = higher.

Assays:
Test in all cases: NCI tumour cell line growth inhibition, 48 h
HCT-15 = system: HCT-15
SNB-75 = system: SNB-75
SR = system: SR
MCF7 = system: MCF7
TK-10 = system: TK-10
IGROV-1 = system: IGROV-1
SK-MEL-28 = system: SK-MEL-28
OVCAR-5 = system: OVCAR-5
BT-549 = system: BT-549
ACHN = system: ACHN
MDA-N = system: MDA-N
SN12C = system: SN12C
SNB-19 = system: SNB-19
MDA-MB-435 = system: MDA-MB-435
SK-MEL-2 = system: SK-MEL-2
HT-29 = system: HT-29
OVCAR-3 = system: OVCAR-3
T47D = system: T47D
OVCAR-4 = system: OVCAR-4
HCC 2998 = system: HCC 2998

Structure (SMILES)	GI50 (HCT-15)	GI50 (SNB-75)	GI50 (SR)	GI50 (MCF7)	GI50 (TK-10)	GI50 (IGROV-1)	GI50 (SK-MEL-28)	GI50 (OVCAR-5)	GI50 (BT-549)	GI50 (ACHN)	GI50 (MDA-N)	GI50 (SN12C)	GI50 (SNB-19)	GI50 (MDA-MB-435)	GI50 (SK-MEL-2)	GI50 (HT-29)	GI50 (OVCAR-3)	GI50 (T47D)	GI50 (OVCAR-4)	GI50 (HCC 2998)
c1cncc(CNCc2cccnc2)c1	> 100 µM	> 100 µM (inactive)	> 100 µM (inactive)	> 100 µM (inactive)	> 100 µM (inactive)	> 100 µM (inactive)	> 100 µM (inactive)	> 100 µM (inactive)	> 100 µM (inactive)	> 100 µM (inactive)	> 100 µM (inactive)	> 100 µM (inactive)	> 100 µM (inactive)	> 100 µM (inactive)	> 100 µM (inactive)	> 100 µM (inactive)	> 100 µM (inactive)	> 100 µM (inactive)	> 100 µM (inactive)	
O=C(O)c1cc(O)nc(SCc2ccccc2)n1	> 100 µM	> 100 µM (inactive)	> 100 µM (inactive)		> 100 µM (inactive)	> 100 µM (inactive)	> 100 µM (inactive)	> 100 µM (inactive)	> 100 µM (inactive)	> 100 µM (inactive)	> 100 µM (inactive)	> 100 µM (inactive)	> 100 µM (inactive)	> 100 µM (inactive)	> 100 µM (inactive)	> 100 µM (inactive)	> 100 µM (inactive)	> 100 µM (inactive)	> 100 µM (inactive)	
O=C1CCC2(c3ccccc3)Nc3ccncc3N12 (configuration not stated)	> 10 µM	> 10 µM (inactive)	> 10 µM (inactive)	> 10 µM (inactive)	> 10 µM (inactive)			> 10 µM (inactive)	> 10 µM (inactive)	> 10 µM (inactive)	> 10 µM (inactive)	> 10 µM (inactive)	> 10 µM (inactive)	> 10 µM (inactive)	> 10 µM (inactive)	> 10 µM (inactive)	> 10 µM (inactive)	> 10 µM (inactive)	> 10 µM (inactive)	
CC[C@@H]1CC[C@@H]2[C@H](CC[C@]3(C)[C@@H](O)CC[C@@H]23)[C@H]1C(=O)O	> 100 µM	18.8 µM (inactive)		> 100 µM (inactive)	> 100 µM (inactive)	> 100 µM (inactive)	> 100 µM (inactive)	> 100 µM (inactive)	> 100 µM (inactive)	> 100 µM (inactive)	> 100 µM (inactive)	> 100 µM (inactive)	> 100 µM (inactive)	> 100 µM (inactive)	> 100 µM (inactive)	> 100 µM (inactive)	> 100 µM (inactive)	> 100 µM (inactive)	> 100 µM (inactive)	> 100 µM (inactive)
CC(C)(C)NC(NC(C)(C)C)=C(C(Cl)=C(Cl)Cl)[N+](=O)[O-]	> 100 µM	> 100 µM (inactive)	> 100 µM (inactive)	> 100 µM (inactive)	> 100 µM (inactive)	> 100 µM (inactive)	> 100 µM (inactive)	> 100 µM (inactive)	> 100 µM (inactive)	> 100 µM (inactive)	> 100 µM (inactive)	> 100 µM (inactive)	10.1 µM (inactive)			> 100 µM (inactive)	> 100 µM (inactive)	> 100 µM (inactive)	> 100 µM (inactive)	> 100 µM (inactive)
O=C(/C=C/c1ccc(OCc2ccccc2)cc1)NCc1ccc(C(=O)NCCc2ccccc2)cc1	> 100 µM	> 100 µM (inactive)		> 100 µM (inactive)	> 100 µM (inactive)	> 100 µM (inactive)	> 100 µM (inactive)	> 100 µM (inactive)	> 100 µM (inactive)	> 100 µM (inactive)	> 100 µM (inactive)	> 100 µM (inactive)	> 100 µM (inactive)	> 100 µM (inactive)	> 100 µM (inactive)	> 100 µM (inactive)	> 100 µM (inactive)	> 100 µM (inactive)	> 100 µM (inactive)	> 100 µM (inactive)
NC(CSCc1ccc(I)cc1)C(=O)O (configuration not stated)	> 100 µM	> 100 µM (inactive)		> 100 µM (inactive)	> 100 µM (inactive)	> 100 µM (inactive)	> 100 µM (inactive)	> 100 µM (inactive)	> 100 µM (inactive)	> 100 µM (inactive)	> 100 µM (inactive)	> 100 µM (inactive)	> 100 µM (inactive)	> 100 µM (inactive)	> 100 µM (inactive)	> 100 µM (inactive)	> 100 µM (inactive)	> 100 µM (inactive)	> 100 µM (inactive)	> 100 µM (inactive)
O=C(Nc1ccc(N2C(=O)CSC2c2cccs2)cc1)c1ccc(N2C(=O)CSC2c2cccs2)cc1 (configuration not stated)	> 100 µM	> 100 µM (inactive)		62.1 µM (inactive)	> 100 µM (inactive)	> 100 µM (inactive)	> 100 µM (inactive)	> 100 µM (inactive)	> 100 µM (inactive)	> 100 µM (inactive)	> 100 µM (inactive)	> 100 µM (inactive)	49 µM (inactive)	83.4 µM (inactive)	> 100 µM (inactive)	> 100 µM (inactive)	> 100 µM (inactive)	46.5 µM (inactive)	> 100 µM (inactive)	> 100 µM (inactive)
CC(=O)n1cc(OP(=O)(Oc2ccccc2)Oc2ccccc2)c2ccccc21	29 µM		10.9 µM (inactive)	10.1 µM (inactive)	50.6 µM (inactive)	8.53 µM (inactive)	29.3 µM (inactive)		34.4 µM (inactive)		27.6 µM (inactive)	29.2 µM (inactive)	58.9 µM (inactive)	17.9 µM (inactive)	22.2 µM (inactive)	36 µM (inactive)	24.2 µM (inactive)	32.7 µM (inactive)	29.6 µM (inactive)	
N=C(N)N/N=C/c1c(-c2ccc(Cl)c(Cl)c2Cl)nc2sccn12	1.63 µM	1.49 µM (inactive)		2.05 µM (inactive)	1.4 µM (inactive)	1.27 µM (inactive)	1.73 µM (inactive)	1.49 µM (inactive)	1.56 µM (inactive)	3.23 µM (inactive)	1.59 µM (inactive)	1.5 µM (inactive)	1.33 µM (inactive)	1.85 µM (inactive)	1.74 µM (inactive)	1.64 µM (inactive)	1.57 µM (inactive)	1.59 µM (inactive)	2.1 µM (inactive)	
CCCCCCCCCCCCCCCC(=O)OCC(COP(=O)(O)OCCNC(=O)CCSSc1ccccn1)OC(=O)CCCCCCCCCCCCCCC (configuration not stated)	> 100 µM	> 100 µM (inactive)	> 100 µM (inactive)	> 100 µM (inactive)		> 100 µM (inactive)	> 100 µM (inactive)	> 100 µM (inactive)	> 100 µM (inactive)	> 100 µM (inactive)	> 100 µM (inactive)	> 100 µM (inactive)	> 100 µM (inactive)	> 100 µM (inactive)	> 100 µM (inactive)	> 100 µM (inactive)	> 100 µM (inactive)	> 100 µM (inactive)	> 100 µM (inactive)	
OCc1ccc2c(c1)CC1(Cc3ccccc3C1)C2	25.8 µM	13.5 µM (inactive)	22.3 µM (inactive)		21.2 µM (inactive)	> 10 µM (inactive)	19.3 µM (inactive)		3.77 µM (inactive)	21 µM (inactive)	4.86 µM (inactive)	17.4 µM (inactive)				16.8 µM (inactive)	23 µM (inactive)	26.6 µM (inactive)	34 µM (inactive)	27.7 µM (inactive)
OCC1OC(n2nc(-c3ccccc3)nc2-c2cnccn2)C(O)C1O (configuration not stated)	> 100 µM	> 100 µM (inactive)		> 100 µM (inactive)	> 100 µM (inactive)	> 100 µM (inactive)	> 100 µM (inactive)	> 100 µM (inactive)	> 100 µM (inactive)		> 100 µM (inactive)	> 100 µM (inactive)	> 100 µM (inactive)	> 100 µM (inactive)		> 100 µM (inactive)	> 100 µM (inactive)	> 100 µM (inactive)	> 100 µM (inactive)	> 100 µM (inactive)
CCCCCCCCCCCCCCCC(=O)ON1C(=S)NC(C)(c2ccccc2)C1=S (configuration not stated)	51.4 µM	> 100 µM (inactive)		> 100 µM (inactive)	> 100 µM (inactive)	79.3 µM (inactive)		> 100 µM (inactive)	> 100 µM (inactive)	> 100 µM (inactive)	> 100 µM (inactive)	> 100 µM (inactive)	> 100 µM (inactive)		> 100 µM (inactive)	55.2 µM (inactive)	> 100 µM (inactive)	> 100 µM (inactive)	> 100 µM (inactive)	38.5 µM (inactive)
COc1cc2c(cc1OC)C(OC)N(C)c1c-2ccc2cc3c(cc12)OCO3 (configuration not stated)	40.7 µM	0.708 µM (active)	0.506 µM (active)	1.24 µM (inactive)	6.75 µM (inactive)	0.805 µM (active)	4.28 µM (inactive)	1.42 µM (inactive)	3.06 µM (inactive)	4.69 µM (inactive)	13.6 µM (inactive)	0.813 µM (active)	0.665 µM (active)	69 µM (inactive)	1.98 µM (inactive)	1.38 µM (inactive)	1.5 µM (inactive)		4.93 µM (inactive)	1.65 µM (inactive)
COc1cc2c3c(c4ccc(OC)c(OC)c4c2cc1OC)CN1CCC[C@@H]1C3 [TYLOCREBRINE]	0.0312 µM	< 0.01 µM (active)	0.0365 µM (active)	0.0548 µM (active)	0.0574 µM (active)	0.0407 µM (active)	0.0307 µM (active)	0.0745 µM (active)	0.0914 µM (active)	0.0444 µM (active)	0.0622 µM (active)	0.0564 µM (active)	0.0163 µM (active)	0.0365 µM (active)	< 0.0153 µM (active)	0.0208 µM (active)	0.107 µM (active)		0.0301 µM (active)	0.0533 µM (active)
